Calls of active or inactive are those of the source. The calls are words filed in the database; no cut-off is given here.
Key:
E-selectin = molecular target: T1, E-selectin (Homo sapiens, UniProt P16581); assay: Binding affinity to recombinant human E-selectin assessed as dissociation constant by surface plasmon resonance (SPR) analysis
T1 sequence (P16581 whole entry): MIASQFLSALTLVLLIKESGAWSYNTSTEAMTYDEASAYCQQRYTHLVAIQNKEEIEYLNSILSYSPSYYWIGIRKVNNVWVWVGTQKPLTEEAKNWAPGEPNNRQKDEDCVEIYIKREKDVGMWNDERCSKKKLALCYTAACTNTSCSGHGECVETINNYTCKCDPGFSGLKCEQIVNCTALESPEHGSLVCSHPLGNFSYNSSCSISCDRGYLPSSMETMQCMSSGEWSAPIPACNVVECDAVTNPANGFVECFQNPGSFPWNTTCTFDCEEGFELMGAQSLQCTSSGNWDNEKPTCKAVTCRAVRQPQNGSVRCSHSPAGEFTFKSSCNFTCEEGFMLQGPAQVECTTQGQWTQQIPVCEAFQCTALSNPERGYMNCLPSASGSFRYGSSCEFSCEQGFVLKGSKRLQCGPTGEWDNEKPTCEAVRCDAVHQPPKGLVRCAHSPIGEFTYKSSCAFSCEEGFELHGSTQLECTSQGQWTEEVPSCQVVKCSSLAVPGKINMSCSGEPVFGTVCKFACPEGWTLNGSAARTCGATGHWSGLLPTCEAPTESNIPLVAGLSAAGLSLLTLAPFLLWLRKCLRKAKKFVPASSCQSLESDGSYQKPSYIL

P-selectin = molecular target: T2, P-selectin (Homo sapiens, UniProt P16109); assay: Binding affinity to recombinant human P-selectin assessed as dissociation constant by surface plasmon resonance (SPR) analysis
T2 sequence (P16109 whole entry): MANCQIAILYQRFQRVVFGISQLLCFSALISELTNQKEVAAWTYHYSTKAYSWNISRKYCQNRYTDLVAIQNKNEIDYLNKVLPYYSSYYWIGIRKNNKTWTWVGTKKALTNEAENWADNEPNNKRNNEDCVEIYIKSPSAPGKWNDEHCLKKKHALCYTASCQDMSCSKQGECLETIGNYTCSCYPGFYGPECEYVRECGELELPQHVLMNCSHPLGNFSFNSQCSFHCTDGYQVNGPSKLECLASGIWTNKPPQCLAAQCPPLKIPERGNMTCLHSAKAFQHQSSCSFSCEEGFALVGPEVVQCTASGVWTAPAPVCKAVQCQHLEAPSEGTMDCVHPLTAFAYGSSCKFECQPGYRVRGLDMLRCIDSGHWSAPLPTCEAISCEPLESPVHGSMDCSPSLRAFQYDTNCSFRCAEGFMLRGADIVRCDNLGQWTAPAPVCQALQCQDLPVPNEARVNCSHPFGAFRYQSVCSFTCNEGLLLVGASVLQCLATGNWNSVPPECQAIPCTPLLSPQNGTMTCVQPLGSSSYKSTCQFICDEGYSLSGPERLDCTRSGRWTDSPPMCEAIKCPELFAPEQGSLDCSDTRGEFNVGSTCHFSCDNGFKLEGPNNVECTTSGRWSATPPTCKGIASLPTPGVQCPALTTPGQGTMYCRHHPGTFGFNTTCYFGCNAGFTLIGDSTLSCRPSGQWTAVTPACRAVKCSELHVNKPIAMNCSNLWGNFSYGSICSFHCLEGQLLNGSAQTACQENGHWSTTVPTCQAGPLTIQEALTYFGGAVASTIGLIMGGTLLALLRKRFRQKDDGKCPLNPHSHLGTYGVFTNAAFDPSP

Mus musculus [1] = assay: Immunosuppressive effect in thioglycolate-induced hyper-inflammatory C57BL/6 wild type mouse model assessed as effect on neutrophil level in […] peritoneal cavity at 2.5 micromol/kg, iv measured after 2 hrs by flow cytometry based in vivo cell recruitment assay; type: functional, organism-based; conditions: dose 2.5 µmol/kg
Mus musculus [2] = assay: (§1) Immunosuppressive effect in thioglycolate-induced hyper-inflammatory C57BL/6 wild type mouse model assessed as effect on CD11b+ level in […] peritoneal cavity at 2.5 micromol/kg, iv pre-administered 10 min followed by thioglycolate administration measured after 10 min by flow cytometry based in vivo cell recruitment assay; type: functional, organism-based; conditions: dose 2.5 µmol/kg, time 20.0 min
Mus musculus [3] = assay: (§2) Immunosuppressive effect in thioglycolate-induced hyper-inflammatory C57BL/6 wild type mouse model assessed as reduction in macrophage/monocyte level in […] peritoneal cavity at 2.5 micromol/kg, iv administered after 24 hrs of thioglycolate injection in peritoneal cavity followed by after 2 hrs treated at 2.5 micromol/kg, ip and followed by after 6 hrs treated at 2.5 micromol/kg, ip and followed by after 15 hrs treated at 2.5 micromol/kg, ip and measured after 3 hrs by flow cytometry based in vivo cell recruitment assay; type: functional, organism-based; conditions: time 26.0 hrs
Mus musculus [4] = assay: (§3) Immunosuppressive effect in thioglycolate-induced hyper-inflammatory C57BL/6 wild type mouse model assessed as reduction in neutrophil level in […] peritoneal cavity at 2.5 micromol/kg, iv pre-administered for 10 min followed by thioglycolate administration for 10 min and further incubated with compound for 1 hr 40 min by flow cytometry based in vivo cell recruitment assay; type: functional, organism-based; conditions: dose 2.5 µmol/kg, time 2.0 hrs
Mus musculus [5] = assay: as §2, with “PSGL-1+” for “macrophage/monocyte”; type: functional, organism-based; conditions: time 26.0 hrs
Mus musculus [6] = assay: as §2, with “neutrophil” for “macrophage/monocyte”; type: functional, organism-based; conditions: time 26.0 hrs
Mus musculus [7] = assay: Immunosuppressive activity in thioglycolate induced hyper-inflammatory C57BL/6 wild type mouse model assessed as effect on neutrophil levels at 2 micromol/kg, iv pre-administered 10 min followed by thioglycolate administration measured after 10 min by flow cytometry analysis; type: functional, organism-based; conditions: dose 2.0 µmol/kg, time 20.0 min
Mus musculus [8] = assay: Immunosuppressive activity in thioglycolate induced hyper-inflammation in C57BL/6 wild type mouse model assessed as reduction in macrophages/monocytes levels at 2 micromol/kg, iv pre-administered for 10 min followed by thioglycolate administration for 10 min and further incubated with compound for 1 hr 40 min by flow cytometry in vivo cell recruitment assay; type: functional, organism-based; conditions: dose 2.0 µmol/kg, time 2.0 hrs
Mus musculus [9] = assay: as §3, with “thioglycolate induced” for “thioglycolate-induced”, “CD11b+” for “neutrophil”, “micromol/kg,iv” for “micromol/kg, iv”, “cytometry” for “cytometry based”; type: functional, organism-based; conditions: dose 2.5 µmol/kg, time 2.0 hrs
Mus musculus [10] = assay: as §1, with “PSGL-1+” for “CD11b+”, “micromol/kg,iv” for “micromol/kg, iv”; type: functional, organism-based; conditions: dose 2.5 µmol/kg, time 20.0 min
Mus musculus [11] = assay: as §1, with “macrophage/monocytes” for “CD11b+”; type: functional, organism-based; conditions: dose 2.5 µmol/kg, time 20.0 min
Mus musculus [12] = assay: as §2, with “CD11b+” for “macrophage/monocyte”; type: functional, organism-based; conditions: time 26.0 hrs
Mus musculus [13] = assay: as §3, with “thioglycolate induced” for “thioglycolate-induced”, “PSGL-1 positive cell” for “neutrophil”; type: functional, organism-based; conditions: dose 2.5 µmol/kg, time 2.0 hrs

Compound | Kd (E-selectin) [nM] | Kd (P-selectin) [nM] | Activity (Mus musculus [1]) | Activity (Mus musculus [2]) | Activity (Mus musculus [3]) | Activity (Mus musculus [4]) | Activity (Mus musculus [5]) | Activity (Mus musculus [6]) | Activity (Mus musculus [7]) | Activity (Mus musculus [8]) | Activity (Mus musculus [9]) | Activity (Mus musculus [10]) | Activity (Mus musculus [11]) | Activity (Mus musculus [12]) | Activity (Mus musculus [13])
CC(C)OC(=O)[C@H](O[C@@H]1O[C@@H](C)[C@@H](O)[C@@H](O)[C@@H]1O)[C@@H](O[C@@H]1O[C@H](CO)[C@H](O)[C@H](O[C@H](Cc2ccccc2)C(=O)O)[C@H]1OC(=O)c1ccccc1)C(=O)OC(C)C | 1000 | 1000 | – | – | – | – | – | – | – | – | – | – | – | – | –
CC(C)OC(=O)[C@H](O[C@@H]1O[C@@H](C)[C@@H](O)[C@@H](O)[C@@H]1O)[C@@H](O[C@@H]1O[C@H](COC(=O)c2ccccc2)[C@@]2(O)CC[C@H](C(=O)O)O[C@H]2[C@H]1OC(=O)c1ccccc1)C(=O)OC(C)C | – | – | inactive | – | – | – | – | – | – | – | – | – | – | – | –
CC(C)OC(=O)[C@H](O[C@@H]1O[C@@H](C)[C@@H](O)[C@@H](O)[C@@H]1O)[C@@H](O[C@@H]1O[C@H](COC(=O)c2ccccc2)[C@@]2(O)CC[C@@H](C(=O)O)O[C@H]2[C@H]1OC(=O)c1ccccc1)C(=O)OC(C)C | – | – | Active; Lowering Neutrophil Levels | inactive | Active | Active | Active | Active | inactive | Active | Active | inactive | inactive | Active | –
CC(=O)N[C@@H]1[C@@H](O[C@@H]2O[C@@H](C)[C@@H](O)[C@@H](O)[C@@H]2O)[C@H](O[C@@H]2O[C@H](CO)[C@H](O)[C@H](O[C@]3(C(=O)O)C[C@H](O)[C@@H](NC(C)=O)[C@H]([C@H](O)[C@H](O)CO)O3)[C@H]2O)[C@@H](CO)O[C@H]1O | – | – | inactive | – | – | – | – | – | – | – | – | – | – | – | –
CC(C)OC(=O)[C@H](O[C@@H]1O[C@@H](C)[C@@H](O)[C@@H](O)[C@@H]1O)[C@@H](O[C@@H]1O[C@H](COC(=O)c2ccccc2)[C@@]2(O)CC[C@@H](c3nnn[nH]3)O[C@@H]2[C@H]1OC(=O)c1ccccc1)C(=O)OC(C)C | – | – | – | inactive | Active | Active | Active | Active | inactive | Active | Active | inactive | inactive | Active | Active
CC(C)OC(=O)[C@H](O[C@@H]1O[C@@H](C)[C@@H](O)[C@@H](O)[C@@H]1O)[C@@H](O[C@@H]1O[C@H](CO)[C@@]2(O)CC[C@@H](c3nnn[nH]3)O[C@@H]2[C@H]1OC(=O)c1ccccc1)C(=O)OC(C)C | – | – | – | inactive | Active | Active | Active | Active | inactive | Active | Active | inactive | inactive | Active | –

Source: ChEMBL document CHEMBL6153061, “Sialyl Lewisx Glycomimetics as E- and P-Selectin Antagonists Targeting Hyperinflammation” (ACS Med Chem Lett, 2025)
